According to ChEMBL document CHEMBL1201862, “PubChem BioAssay data set” (2004):
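In this assay, cells in 96-well plates receive the compound at five concentrations for 48 hours. Endpoints are linearly interpolated between the surrounding concentrations. GI50 is the concentration that inhibits growth by half.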 Calls of active or inactive are those of the source. Rule as the data show it: active = GI50 up to about 1.1 µM and inactive = higher.

Assays:
Assay in all cases: NCI anticancer screen, dose series, 48 h
HCT-116 = system: HCT-116
ACHN = system: ACHN
OVCAR-3 = system: OVCAR-3
SF-539 = system: SF-539
MDA-N = system: MDA-N
UACC-62 = system: UACC-62
HT-29 = system: HT-29
SNB-75 = system: SNB-75
A549 = system: A549
LOX IMVI = system: LOX IMVI
SF-268 = system: SF-268
OVCAR-5 = system: OVCAR-5
786-0 = system: 786-0
M14 = system: M14
NCI-H460 = system: NCI-H460
IGROV-1 = system: IGROV-1
SK-MEL-5 = system: SK-MEL-5
SR = system: SR
NCI/ADR-RES = system: NCI/ADR-RES
HCC 2998 = system: HCC 2998

| Structure (SMILES) | GI50 (HCT-116) | GI50 (ACHN) | GI50 (OVCAR-3) | GI50 (SF-539) | GI50 (MDA-N) | GI50 (UACC-62) | GI50 (HT-29) | GI50 (SNB-75) | GI50 (A549) | GI50 (LOX IMVI) | GI50 (SF-268) | GI50 (OVCAR-5) | GI50 (786-0) | GI50 (M14) | GI50 (NCI-H460) | GI50 (IGROV-1) | GI50 (SK-MEL-5) | GI50 (SR) | GI50 (NCI/ADR-RES) | GI50 (HCC 2998) |
| --- | --- | --- | --- | --- | --- | --- | --- | --- | --- | --- | --- | --- | --- | --- | --- | --- | --- | --- | --- | --- |
| O=C(NC(=S)Nc1ccc(Br)cc1)c1ccc2c(c1)Sc1ccccc1S2 | 23.2 µM (inactive) | 18.2 µM (inactive) | 20.3 µM (inactive) | 24.3 µM (inactive) | 28.9 µM (inactive) | 27.5 µM (inactive) | 33.6 µM (inactive) | 15 µM (inactive) | 21 µM (inactive) | 23.3 µM (inactive) | 21.9 µM (inactive) | 20.6 µM (inactive) | 16.2 µM (inactive) | 12.4 µM (inactive) | 17.9 µM (inactive) | 16.1 µM (inactive) | 51.1 µM (inactive) | 17.3 µM (inactive) | 24.2 µM (inactive) | – |
| O=C1c2cc3c(cc2NC(c2ccccc2F)C1O)OCO3 (stereo unspecified) | 3.97 µM (inactive) | 31.9 µM (inactive) | 20.5 µM (inactive) | 12.2 µM (inactive) | 2.36 µM (inactive) | 10.9 µM (inactive) | 17.6 µM (inactive) | 16.3 µM (inactive) | 11.7 µM (inactive) | 17.9 µM (inactive) | 19.4 µM (inactive) | 22.1 µM (inactive) | 15.5 µM (inactive) | 10.4 µM (inactive) | 9.46 µM (inactive) | 13.5 µM (inactive) | 4.86 µM (inactive) | 3.74 µM (inactive) | 10.5 µM (inactive) | 15.5 µM (inactive) |
| COc1cc2c(cc1OC)C(C1CC1)ON(C)CC2 (stereo unspecified) | > 100 µM (inactive) | > 100 µM (inactive) | > 100 µM (inactive) | > 100 µM (inactive) | > 100 µM (inactive) | > 100 µM (inactive) | > 100 µM (inactive) | > 100 µM (inactive) | > 100 µM (inactive) | > 100 µM (inactive) | > 100 µM (inactive) | > 100 µM (inactive) | > 100 µM (inactive) | > 100 µM (inactive) | > 100 µM (inactive) | > 100 µM (inactive) | > 100 µM (inactive) | > 100 µM (inactive) | > 100 µM (inactive) | > 100 µM (inactive) |
| COc1ccc(/C=C2/C(C)=NN(c3cccc(Cl)c3)/C2=N/c2nc3ccccc3s2)cc1 | 19.2 µM (inactive) | 20.6 µM (inactive) | 20.2 µM (inactive) | 26.7 µM (inactive) | 21.7 µM (inactive) | – | 19.5 µM (inactive) | 26.8 µM (inactive) | – | 18 µM (inactive) | 25.6 µM (inactive) | 25.1 µM (inactive) | 20.3 µM (inactive) | 25.1 µM (inactive) | 20.4 µM (inactive) | 20.7 µM (inactive) | 16.6 µM (inactive) | 23.9 µM (inactive) | 22.9 µM (inactive) | 18.3 µM (inactive) |
| COc1cc(CNc2nc3ccccc3nc2-c2cccs2)cc(OC)c1OC | 22.9 µM (inactive) | 13.9 µM (inactive) | 22.6 µM (inactive) | 78.5 µM (inactive) | 16.3 µM (inactive) | 13.7 µM (inactive) | 26.9 µM (inactive) | > 100 µM (inactive) | 18.7 µM (inactive) | 17.7 µM (inactive) | > 100 µM (inactive) | 4.19 µM (inactive) | 25.2 µM (inactive) | – | 10.5 µM (inactive) | 20.4 µM (inactive) | 12.5 µM (inactive) | 6.87 µM (inactive) | 8.24 µM (inactive) | 39.1 µM (inactive) |
| CC(=O)N(CC(=O)C(=O)NNc1ccoc1)c1ccc(Cl)cc1 | > 100 µM (inactive) | 37.8 µM (inactive) | > 100 µM (inactive) | > 100 µM (inactive) | > 100 µM (inactive) | – | > 100 µM (inactive) | > 100 µM (inactive) | > 100 µM (inactive) | > 100 µM (inactive) | > 100 µM (inactive) | > 100 µM (inactive) | 94 µM (inactive) | > 100 µM (inactive) | > 100 µM (inactive) | > 100 µM (inactive) | > 100 µM (inactive) | 79.4 µM (inactive) | > 100 µM (inactive) | > 100 µM (inactive) |
| O=[N+]([O-])c1ccc(CSc2nncc3[nH]cnc23)cc1 | > 100 µM (inactive) | 77.4 µM (inactive) | > 100 µM (inactive) | > 100 µM (inactive) | > 100 µM (inactive) | 62.4 µM (inactive) | > 100 µM (inactive) | 80.2 µM (inactive) | > 100 µM (inactive) | > 100 µM (inactive) | – | > 100 µM (inactive) | > 100 µM (inactive) | > 100 µM (inactive) | – | > 100 µM (inactive) | > 100 µM (inactive) | > 100 µM (inactive) | > 100 µM (inactive) | > 100 µM (inactive) |
| CN(C)Cc1cc(C(=O)/C=C/c2ccc(Br)cc2)cc(CN(C)C)c1O | 6.14 µM (inactive) | 3.6 µM (inactive) | 3.24 µM (inactive) | 14.3 µM (inactive) | 2.22 µM (inactive) | – | 3.2 µM (inactive) | 11.3 µM (inactive) | 8.22 µM (inactive) | 1.99 µM (inactive) | 18.2 µM (inactive) | 19.3 µM (inactive) | 5.28 µM (inactive) | 4.79 µM (inactive) | 7.16 µM (inactive) | 11.7 µM (inactive) | 10.7 µM (inactive) | 5.85 µM (inactive) | 16.7 µM (inactive) | 13.7 µM (inactive) |
| COc1ccc2c(c1)CCC1=C/C(=N\NC(N)=O)CCC12C (stereo unspecified) | > 10 µM (inactive) | > 10 µM (inactive) | > 10 µM (inactive) | > 10 µM (inactive) | > 10 µM (inactive) | 6.41 µM (inactive) | > 10 µM (inactive) | > 10 µM (inactive) | > 10 µM (inactive) | > 10 µM (inactive) | > 10 µM (inactive) | – | > 10 µM (inactive) | > 10 µM (inactive) | – | > 10 µM (inactive) | > 10 µM (inactive) | > 10 µM (inactive) | > 10 µM (inactive) | > 10 µM (inactive) |
| COc1ccc(C(=O)/C=C/c2ccc(OCC#N)cc2)cc1OC | 5.09 µM (inactive) | 30.1 µM (inactive) | 21.2 µM (inactive) | 17.9 µM (inactive) | > 10 µM (inactive) | 16.7 µM (inactive) | 22.3 µM (inactive) | 3.72 µM (inactive) | 29.1 µM (inactive) | – | 26.6 µM (inactive) | > 10 µM (inactive) | 19.9 µM (inactive) | 16.4 µM (inactive) | 27.7 µM (inactive) | 30.5 µM (inactive) | 18.3 µM (inactive) | 11.8 µM (inactive) | 18.5 µM (inactive) | 18.2 µM (inactive) |
| Cc1ccc(S(=O)(=O)N(CC(O)COc2ccccc2)c2ccc(F)cc2F)cc1 (stereo unspecified) | – | 16.5 µM (inactive) | 15.3 µM (inactive) | 16.4 µM (inactive) | 15.5 µM (inactive) | 13.5 µM (inactive) | 14.9 µM (inactive) | 14.8 µM (inactive) | 12.9 µM (inactive) | 14.2 µM (inactive) | 15.3 µM (inactive) | 18.1 µM (inactive) | 16.8 µM (inactive) | 17.3 µM (inactive) | 15.8 µM (inactive) | – | 14.7 µM (inactive) | 22.5 µM (inactive) | 15.9 µM (inactive) | 14.1 µM (inactive) |
| Cc1cc(C#N)c(Nc2ccccc2[N+](=O)[O-])s1 | 23.8 µM (inactive) | 58.7 µM (inactive) | 21 µM (inactive) | 27.7 µM (inactive) | 14.9 µM (inactive) | 54.2 µM (inactive) | – | 15.4 µM (inactive) | 85.3 µM (inactive) | – | 51.5 µM (inactive) | 14.2 µM (inactive) | 49.9 µM (inactive) | 32.8 µM (inactive) | 36.6 µM (inactive) | 13.8 µM (inactive) | – | 40.2 µM (inactive) | 17.4 µM (inactive) | 40.8 µM (inactive) |
| CCN(CC)CCNC(=O)c1ccc(I)cc1 | > 100 µM (inactive) | > 100 µM (inactive) | > 100 µM (inactive) | > 100 µM (inactive) | > 100 µM (inactive) | – | 33.3 µM (inactive) | 33.8 µM (inactive) | > 100 µM (inactive) | > 100 µM (inactive) | > 100 µM (inactive) | > 100 µM (inactive) | > 100 µM (inactive) | > 100 µM (inactive) | > 100 µM (inactive) | > 100 µM (inactive) | 28.4 µM (inactive) | > 100 µM (inactive) | > 100 µM (inactive) | > 100 µM (inactive) |
| CCCCc1c(OC)cc(O)c2c1C(=O)c1[nH]c(C(=O)O)c(O)c(=O)c1C2=O | 3.37 µM (inactive) | 2.27 µM (inactive) | 0.908 µM (active) | 0.499 µM (active) | 17.2 µM (inactive) | 2.28 µM (inactive) | > 100 µM (inactive) | 3.26 µM (inactive) | 77.1 µM (inactive) | 4.01 µM (inactive) | 1.95 µM (inactive) | 4.9 µM (inactive) | 1.62 µM (inactive) | 4.83 µM (inactive) | 46.8 µM (inactive) | 8.43 µM (inactive) | – | 6.93 µM (inactive) | 4.18 µM (inactive) | 19.8 µM (inactive) |
| NC(=S)N1N=C2c3ccccc3CCC[C@H]2[C@@H]1c1ccccc1 | 1.26 µM (inactive) | 5.07 µM (inactive) | 0.661 µM (active) | 0.518 µM (active) | 0.0531 µM (active) | – | 0.867 µM (active) | 0.211 µM (active) | 1.52 µM (inactive) | 1.59 µM (inactive) | 3 µM (inactive) | 9.57 µM (inactive) | 1.01 µM (active) | 0.315 µM (active) | 1.07 µM (active) | 2.36 µM (inactive) | 0.664 µM (active) | 0.249 µM (active) | 0.348 µM (active) | 1.99 µM (inactive) |
